# From patent publication US7144893B2, “4-aryl quinols and analogs thereof as therapeutic agents” (Cancer Research Technology Limited, priority 2001, dated 2006)
# How the values were obtained:
# [1] = tested on: 60 human cancer cell lines; assay: cells; type: cell-based; settings: Homo sapiens; for CC50: 48 h, read-out: mean LC50
# Protocol: (§1) Compounds were tested for in vitro activity (48 h drug exposure) across 60 human cancer cell lines through the National Cancer Institute (NCI) Developmental Therapies Screening Program (Boyd et al., 1995).
# colon sub-panel = assay: cells; type: cell-based; settings: Homo sapiens, SW-620, read-out: mean LC50 in colon sub-panel
# Protocol: as §1
# renal sub-panel = assay: cells; type: cell-based; settings: Homo sapiens, 60 cell, read-out: mean LC50 in renal sub-panel
# Protocol: as §1
# HCT 116 colon carcinoma = assay: Growth inhibitory assay (MTT, 72 hr); type: cell-based; settings: Homo sapiens, 72 hr exposure
# Protocol: (§2) Compounds were prepared as 10 mM top stocks, dissolved in DMSO, and stored at 4° C., protected from light, for a maximum period of 4 weeks. Human derived cell lines (HCT 116, HT29 colon carcinoma; MCF-7 (ER+), MDA 468 (ER−) breast carcinoma; A549 lung adenocarcinoma) were routinely cultivated at 37° C. in an atmosphere of 5% CO2 in RPMI 1640 medium supplemented with 2 mM L-glutamine and 10% fetal calf serum and subcultured twice weekly to maintain continuous logarithmic growth. Cells were seeded into 96-well microtiter plates at a density of 5×10^3 per well and allowed 24 hr to adhere before drugs were introduced (final concentration 0.1 nM–100 μM, n=8). Serial drug dilutions were prepared in medium immediately prior to each assay. At the time of drug addition and following 72 hr exposure, MTT was added to each well (final concentration 400 µg/mL). Incubation at 37° C. for 4 hr allowed reduction of MTT by mitochondrial dehydrogenase to an insoluble formazan product. Well contents were aspirated and formazan solubilized by addition of DMSO:glycine buffer (pH 10.5) (4:1). Absorbance was measured using an Anthos Labtec systems plate reader at 550 nm, and used as a measure of cell viability; thus cell growth or drug toxicity was determined.
# HT29 colon carcinoma = assay: Growth inhibitory assay (MTT, 72 hr); type: cell-based; settings: Homo sapiens, HT-29, 72 hr exposure
# Protocol: as §2
# [2] = tested on: MCF-7 (ER+) breast carcinoma; assay: Growth inhibitory assay (MTT, 72 hr); type: cell-based; settings: Homo sapiens, MCF7, 72 hr exposure
# Protocol: as §2
# [3] = tested on: MDA 468 (ER−) breast carcinoma; assay: Growth inhibitory assay (MTT, 72 hr); type: cell-based; settings: Homo sapiens, 72 hr exposure
# Protocol: as §2
# [4] = tested on: Mycobacterium tuberculosis H37Rv (ATCC 27294); assay: Microplate Alamar Blue Assay (MABA), TAACF primary screening; type: cell-based; settings: lowest concentration effecting a reduction in fluorescence of 90% relative to controls
# Text: Compounds were submitted to the Tuberculosis Antimicrobial Acquisition and Coordinating Facility (TAACF) for testing as antimycobacterial drugs.
# Compounds were subjected to in vitro evaluation for antimycobacterial activity.
# See, for example, Collins et al., 1997.
# A549 lung adenocarcinoma = assay: Growth inhibitory assay (MTT, 72 hr); type: cell-based; settings: Homo sapiens, 72 hr exposure
# Protocol: as §2
# [5] = mean over NCI 60 cell panel, 48 h drug exposure
SMILES,CC50 ([1]; 60 cell),"GI50 [1, 5]",LC50 (colon sub-panel),mean LC50 (renal sub-panel),IC50 (HCT 116 colon carcinoma),IC50 (HT29 colon carcinoma),IC50 [2],IC50 [3],MIC [4],melting point,"GI50 ([1]; 60 cell, Table 5)",IC50 (A549 lung adenocarcinoma)
"O=C1C=CC(O)(c2ccccn2)C=C1 [Q12, 4-(Pyridin-2-yl)-4-hydroxy-2,5-cyclohexadien-1-one]",20.4 µM,1.91 µM,6.9 µM,11.3 µM,0.547 µM,0.46 µM,0.72 µM,1.5 µM,6.25 µg/mL,–,–,–
"O=C1C=CC(O)(c2nc3ccccc3s2)C(Cl)=C1 (centres unmarked) [Q06, 4-(Benzothiazol-2-yl)-3-chloro-4-hydroxy-2,5-cyclohexadien-1-one]",6.31 µM,0.46 µM,2.31 µM,1.8 µM,14.9 µM,26.3 µM,–,–,–,–,–,–
"CC1=CC(O)(c2nc3ccccc3s2)C=C(C)C1=O [Q44, 4-(benzothiazol-2-yl)-4-hydroxy-2,6-dimethylcyclohexa-2,5-dien-1-one]",> 100 µM,38.2 µM,> 100 µM,> 100 µM,–,–,–,–,–,–,–,–
"O=C1C=CC(O)(c2cc3ccccc3o2)c2ccccc21 (centres unmarked) [Q47, 4-(Benzofuran-2-yl)-4-hydroxy-4H-naphth-1-one]",7.76 µM,0.74 µM,7.76 µM,6.48 µM,–,–,–,–,–,–,–,–
"O=C1CC(SCc2ccccc2)C(O)(c2ccccc2)C(SCc2ccccc2)C1 (centres unmarked) [Q24, 4-Hydroxy-4-phenyl-3,5-di[(phenyl)methylthio]-cyclohexan-1-one]",–,3.98 µM,–,–,–,–,–,–,–,–,–,–
"COC1(c2ccccc2)C=CC(=O)C=C1 [Q16, 4-Methoxy-4-phenyl-2,5-cyclohexadien-1-one]",–,25.4 µM,–,–,–,–,–,–,–,–,–,–
"CC(=O)OC1(c2ccccc2)C=CC(=O)C=C1 [Q21, 4-acetoxy-4-phenyl-2,5-cyclohexadien-1-one]",–,4.79 µM,–,–,–,–,–,–,–,–,–,–
"COC1(c2nc3ccc(C)cc3s2)C=CC(=NS(=O)(=O)c2ccc(C)cc2)C=C1 (centres unmarked) [Q30, N-[4-methoxy-4-(6-methylbenzothiazol-2-yl)cyclohexa-2,5-dienylidene]4-methylbenzenesulphonamide]",19.5 µM,1.2 µM,9.92 µM,10.6 µM,–,–,–,–,–,–,–,–
"CCOC1(c2nc3ccccc3s2)C=CC(=O)C=C1 [Q18, 4-(Benzothiazol-2-yl)-4-ethoxy-2,5-cyclohexadien-1-one]",–,–,–,–,–,–,–,–,–,59 °C,–,–
"O=C1C=CC(O)(c2cc3ccccc3s2)c2ccccc21 (centres unmarked) [Q46, 4-Benzothiophen-2-yl-4-hydroxy-4H-naphth-1-one]",70.8 µM,2.29 µM,> 100 µM,> 100 µM,–,–,–,–,–,–,–,–
"COC1(c2nc3c(F)cccc3s2)C=CC(=NS(=O)(=O)c2ccc(C)cc2)C=C1 (centres unmarked) [Q33, N-[4-methoxy-4-(4-fluorobenzothiazol-2-yl)cyclohexa-2,5-dienylidene]-4-methylbenzenesulphonamide]",27.5 µM,2.57 µM,26.9 µM,14.4 µM,–,–,–,–,–,–,–,–
"O=C1C=CC(O)(c2cc3ccccc3s2)C=C1 [Q02, 4-(Benzothiophen-2-yl)-4-hydroxy-2,5-cyclohexadien-1-one]",5.75 µM,0.25 µM,1.69 µM,1.4 µM,0.169 µM,0.552 µM,–,–,–,–,0.55 µM,2.43 µM
O=C1CC(Sc2ccccc2)C(O)(c2nc3ccccc3s2)C(Sc2ccccc2)C1 (centres unmarked) [Q25],–,0.59 µM,–,–,–,–,–,–,1.56 µg/mL,–,–,–
"O=C1C=CC(O)(c2nc3ccccc3[nH]2)C=C1 [Q07, 4-(Benzimidazol-2-yl)-4-hydroxy-2,5-cyclohexadien-1-one]",–,1.1 µM,–,–,0.21 µM,0.504 µM,0.509 µM,0.353 µM,3.13 µg/mL,234 °C,–,–
"O=C1C=CC(OC(=O)c2ccc([N+](=O)[O-])cc2)(c2nc3ccccc3s2)C=C1 [Q34, 4-(para-nitrobenzoyloxy)-4-(benzothiazol-2-yl)-2,5-cyclohexadien-1-one]",–,–,–,–,–,–,–,–,–,138 °C,–,–
"O=C1C=CC(O)(c2nccs2)C=C1 [Q14, 4-(Thiazol-2-yl)-4-hydroxy-2,5-cyclohexadien-1-one]",14.5 µM,1.35 µM,6.19 µM,9.17 µM,0.618 µM,0.719 µM,–,–,3.13 µg/mL,–,–,–
"COc1ccc2nc(C3(OC)C=CC(=NS(=O)(=O)c4ccc(C)cc4)C=C3)sc2c1 (centres unmarked) [Q31, N-[4-methoxy-4-(6-methoxybenzothiazol-2-yl)cyclohexa-2,5-dienylidene]-4-methylbenzenesulphonamide]",18.6 µM,1.91 µM,13.2 µM,11.2 µM,–,–,–,–,–,–,–,–
"O=C1C=CC(O)(c2cccs2)C=C1 [Q13, 4-(Thiophen-2-yl)-4-hydroxy-2,5-cyclohexadien-1-one]",30.9 µM,1.78 µM,32.5 µM,14.4 µM,0.663 µM,1.25 µM,0.569 µM,0.719 µM,6.25 µg/mL,–,–,–
"CCSC1CC(=O)CC(SCC)C1(O)c1ccccc1 (centres unmarked) [Q22, 3,5-Di(ethylthio)-4-hydroxy-4-phenylcyclohexan-1-one]",–,12.6 µM,–,–,–,–,–,–,–,–,–,–
"COC1(c2nc3ccc(F)cc3s2)C=CC(=NS(=O)(=O)c2ccc(C)cc2)C=C1 (centres unmarked) [Q32, N-[4-methoxy-4-(6-fluorobenzothiazol-2-yl)cyclohexa-2,5-dienylidene]-4-methylbenzenesulphonamide]",30.2 µM,1.74 µM,25.6 µM,19.1 µM,–,–,–,–,–,–,–,–
"O=C1C=CC(O)(c2cnc3ccccc3c2)C=C1 [Q10, 4-(Quinolin-3-yl)-4-hydroxy-2,5-cyclohexadien-1-one]",15.8 µM,1.07 µM,10.2 µM,9.66 µM,0.72 µM,0.97 µM,0.77 µM,1.7 µM,3.13 µg/mL,–,–,–
"COc1ccc(C(=O)OC2(c3nc4ccccc4s3)C=CC(=O)C=C2)cc1 [Q35, 4-(para-methoxybenzoyloxy)-4-(benzothiazol-2-yl)-2,5-cyclohexadien-1-one]",–,–,–,–,–,–,–,–,–,137 °C,–,–
"O=C1CC(Sc2ccccc2)C(O)(c2ccccc2)C(Sc2ccccc2)C1 (centres unmarked) [Q23, 4-Hydroxy-4-phenyl-3,5-di(phenylthio)-cyclohexan-1-one]",–,1.82 µM,–,–,–,–,–,–,–,–,–,–
"O=C1/C(=C\c2ccccc2)CC(O)(c2nc3ccccc3s2)C/C1=C/c1ccccc1 (centres unmarked) [Q45, 4-(benzothiazol-2-yl)-2,6-bis(phenylmethinyl)-4-hydroxycyclohexanone]",47.9 µM,2.69 µM,17.4 µM,37.2 µM,–,–,–,–,–,–,–,–
"O=C1C=CC(O)(c2cccc3ccccc23)C=C1 [Q09, 4-(Naphth-1-yl)-4-hydroxy-2,5-cyclohexadien-1-one]",25.7 µM,1.82 µM,12.2 µM,17 µM,0.42 µM,1.36 µM,0.78 µM,1.77 µM,–,–,–,–
"NC(CCC(=O)NC(CSC1CC(=O)C=CC1(O)c1nc2ccccc2s1)C(=O)NCC(=O)O)C(=O)O (centres unmarked) [Q28, 4-Benzothiazol-2-yl-5-S-glutathionyl-4-hydroxy-cyclohex-2-enone]",–,2.19 µM,–,–,–,–,–,–,–,–,–,–
"O=C1C=CC(O)(c2ccccc2)C=C1 [Q11, 4-Phenyl-4-hydroxy-2,5-cyclohexadien-1-one]",21.9 µM,2.29 µM,10.6 µM,16.7 µM,2.22 µM,3.63 µM,–,–,–,–,–,–
"O=C1C=CC(O)(c2ccc3ccccc3c2)C=C1 [Q08, 4-(Naphth-2-yl)-4-hydroxy-2,5-cyclohexadien-1-one]",11.7 µM,0.81 µM,6.58 µM,4.68 µM,0.82 µM,2.5 µM,1.3 µM,1.4 µM,–,–,–,–
"COC1(c2nc3ccccc3s2)C=CC(=NS(=O)(=O)c2ccc(C)cc2)C=C1 (centres unmarked) [Q29, N-[4-methoxy-4-(benzothiazol-2-yl)cyclohexa-2,5-dienylidene]-4-methylbenzenesulphonamide]",83.2 µM,15.5 µM,> 100 µM,> 100 µM,–,–,–,–,–,–,–,–
"O=C1CCC(O)(c2nc3ccccc3s2)CC1 [Q43, 4-(Benzothiazol-2-yl)-4-hydroxycyclohexanone]",> 100 µM,> 100 µM,> 100 µM,> 100 µM,–,–,–,–,–,–,–,–
